By EC50 is commonly meant the concentration that produces a half-maximal response.

For 23 compounds, EC50 results are on record in patent US12344610B2, “APOL1 inhibitors and methods of use” (Maze Therapeutics, Inc., priority 2022, dated 2025).

Holding throughout (type): cell-based
For test [1], the system named is HEK293 cells overexpressing APOL1 G2. Put plainly: APOL1 G2 HEK293 cell rescue assay (reversal of cell death caused by overexpression of APOL1). The settings on record: Homo sapiens, HEK293, HEK293 overexpressing APOL1 G2; geometric mean of at least 2 assay runs; † = single assay run. Summed up: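 Each compound tested in duplicate wells on one plate per run, with values usually the geometric mean across at least two runs on different days, occasionally from one run only. Read-out: concentration giving half-maximal rescue of APOL1 G2 overexpression-induced death of HEK293 cells.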

Test [2] concerns Trypanosoma brucei Lister 427 VSG221 with APOL1 G2 recombinant protein. Put plainly: APOL1 G2 trypanosome cell rescue assay (Example B5). The settings on record: Trypanosoma brucei, 20 h, read-out: APOL1 G2 Trypanosome Rescue EC50, Trypanosoma brucei Lister 427 VSG221 with APOL1 G2 recombinant protein, 20 hours, CellTiter-Glo; geometric mean of at least 2 assay runs; † = single assay run. Summed up: (§1)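 Luminescent ATP read-out (CellTiter-Glo) of trypanosome viability after 20 h at 37° C. Bloodstream T. brucei Lister 427 VSG221, 250/well in modified HMI-9, were exposed to recombinant mature APOL1 (aa 28-398) from a 2 μg/mL addition, plus compound in 11-point 2-fold series.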

The subject of test [3] is Trypanosoma brucei Lister 427 VSG221 with APOL1 G1 recombinant protein. Put plainly: APOL1 G1 trypanosome cell rescue assay (Example B5). The settings on record: Trypanosoma brucei, 20 h, read-out: APOL1 G1 Trypanosome Rescue EC50, Trypanosoma brucei Lister 427 VSG221 with APOL1 G1 recombinant protein, 20 hours, CellTiter-Glo; geometric mean of at least 2 assay runs; † = single assay run. The method in brief:
as §1

Where only a bound is given, the exact number is not on record here.

Turning to `CS(=O)(=O)c1ccc(OCCN2CCC3(CC2)C(=O)N(CCO)c2ccc(Cl)cc23)cc1` [Compound 18, 5-chloro-1-(2-hydroxyethyl)-1′-[2-(4-methanesulfonylphenoxy)ethyl]-1,2-dihydrospiro[indole-3,4′-piperidin]-2-one], the results for the EC50 in test [1], in test [2] and in test [3] were 225 nM, 234 nM and 1540 nM, respectively.
In the same order, the values of `COCCN1C(=O)C2(CCN(CCOc3ccc(S(C)(=O)=O)cc3)CC2)c2cc(Cl)ccc21` [Compound 20, 5-chloro-1′-[2-(4-methanesulfonylphenoxy)ethyl]-1-(2-methoxyethyl)-1,2-dihydrospiro[indole-3,4′-piperidin]-2-one] are 294 nM, 263 nM and 949 nM.
On the same counts, the results for `CN1C(=O)C2(CCN(CCOc3ccc(S(=O)(=O)CCCS(C)(=O)=O)cc3)CC2)c2cc(Cl)ccc21` [Compound 23, 5-chloro-1′-{2-[4-(3-methanesulfonylpropanesulfonyl)phenoxy]ethyl}-1-methyl-1,2-dihydrospiro[indole-3,4′-piperidin]-2-one] are 135 nM, 113 nM and 612 nM.
On the same counts, the results for `CS(=O)(=O)c1ccc(OCCN2CCC3(CC2)C(=O)N(CCO)c2ccc(Br)cc23)cc1` [Compound 24, 5-bromo-1-(2-hydroxyethyl)-1′-[2-(4-methanesulfonylphenoxy)ethyl]-1,2-dihydrospiro[indole-3,4′-piperidin]-2-one] are 240 nM, 163 nM and 759 nM.
For `COCCN1C(=O)C2(CCN(CCOc3ccc(S(C)(=O)=O)cc3)CC2)c2cc(C#N)ccc21` [Compound 25, 1′-[2-(4-methanesulfonylphenoxy)ethyl]-1-(2-methoxyethyl)-2-oxo-1,2-dihydrospiro[indole-3,4′-piperidine]-5-carbonitrile], the EC50 is 1310 nM in test [1], 1230 nM in test [2] and more than 4000 nM in test [3].
On the same counts, the results for `CS(=O)(=O)c1ccc(OCCN2CCCC3(CC2)C(=O)Nc2ccccc23)cc1` (stereo not drawn) [Compound 26, 1-(2-(4-(methylsulfonyl)phenoxy)ethyl)spiro[azepane-4,3′-indolin]-2′-one] are 1760 nM, more than 4000 nM and more than 4000 nM.
In the same order, the values of `CN1C(=O)CCc2cc(OCCN3CCC4(CC3)C(=O)Nc3ccc(Cl)cc34)ccc21` [Compound 27, 5-chloro-1′-[2-[(1-methyl-2-oxo-3,4-dihydroquinolin-6-yl)oxy]ethyl]spiro[indoline-3,4′-piperidine]-2-one] are 62 nM, 66.3 nM and 269 nM.
In the same order, the values of `O=C1CCc2cc(OCCN3CCC4(CC3)C(=O)Nc3ccc(Cl)cc34)cnc2N1CCO` [Compound 192, 5-chloro-1′-(2-{[8-(2-hydroxyethyl)-7-oxo-5,6,7,8-tetrahydro-1,8-naphthyridin-3-yl]oxy}ethyl)-1,2-dihydrospiro[indole-3,4′-piperidin]-2-one] are 41.1 nM, 49.1 nM and 142 nM.
For the compound `CC(=O)N(C)CCS(=O)(=O)c1ccc(OCCN2CCC3(CC2)C(=O)Nc2ccc(Cl)cc23)cc1` [Compound 193, N-{2-[4-(2-{5-chloro-2-oxo-1,2-dihydrosiro[indole-3,4′-piperidin]-1′-yl}ethoxy)benzenesulfonyl]ethyl}-N-methylacetamide], the EC50 in test [1] came out at 155 nM; in test [2] it was 70.2 nM; in test [3], 288 nM.
In the same order, the values of `CS(=O)(=O)C1(c2ccc(OCCN3CCC4(CC3)C(=O)Nc3ccc(Cl)cc34)cc2)COC1` [Compound 195, 5-chloro-1′-{2-[4-(3-methanesulfonyloxetan-3-yl)phenoxy]ethyl}-1,2-dihydrospiro[indole-3,4′-piperidin]-2-one] are 39.4 nM, 19.8 nM and 74.4 nM.
`O=C1Nc2ccc(Cl)cc2C12CCN(CCOc1ccc3c(c1)CCS3(=O)=O)CC2` [Compound 196, 5-(2-{5-chloro-2-oxo-1,2-dihydrospiro[indole-3,4′-piperidin]-1′-yl}ethoxy)-2,3-dihydro-1λ^6-benzothiophene-1,1-dione]: the results for the EC50 in test [1], in test [2] and in test [3] were 91.9 nM, 60.3 nM and 185 nM, respectively.
In the same order, the values of `CS(=O)(=O)c1ccc(OCCN2CCC3(CC2)C(=O)Nc2ccc(Cl)cc23)cc1C(F)F` [Compound 197, 5-chloro-1′-{2-[3-(difluoromethyl)-4-methanesulfonylphenoxy]ethyl}-1,2-dihydrospiro[indole-3,4′-piperidin]-2-one] are 32.3 nM, 10.6 nM and 193 nM.
On the same counts, the results for `O=C1Nc2ccc(Cl)cc2C12CCN(CCOc1ccc(S(=O)(=O)CCO)cc1)CC2` [Compound 198, 5-chloro-1′-{2-[4-(2-hydroxyethanesulfonyl)phenoxy)ethyl}-1,2-dihydrospiro[indole-3,4′-piperidin]-2-one] are 63.1 nM, 41.9 nM and 142 nM.
On the same counts, the results for `CS(=O)(=O)Nc1ccc(OCCN2CCC3(CC2)C(=O)Nc2ccc(Cl)cc23)cc1` [Compound 214, N-[4-(2-{5-chloro-2-oxo-1,2-dihydrospiro[indole-3,4′-piperidin]-1′-yl}ethoxy)phenyl]methanesulfonamide] are 79 nM, 88.7 nM and 430 nM.
Take `O=C1Nc2ccc(Cl)cc2C12CCN(CCOc1ccc(S(=O)(=O)[C@H]3C[C@H](O)C3)cc1)CC2` [Compound 215, 5-chloro-1′-[2-(4-{[(trans)-3-hydroxycyclobutyl]sulfonyl}phenoxy)ethyl]-1,2-dihydrospiro[indole-3,4′-piperidin]-2-one]: the EC50 is 79.8 nM in test [1], 22.4 nM in test [2] and 97 nM in test [3].
In the same order, the values of `CS(=O)(=O)c1ccc(OCCN2CCC3(CC2)C(=O)Nc2ccc(Cl)cc23)cc1C(O)CO` (stereo not drawn) [Compound 216, 5-chloro-1′-{2-[3-(1,2-dihydroxyethyl)-4-methanesulfonylphenoxy]ethyl}-1,2-dihydrospiro[indole-3,4′-piperidin]-2-one] are 281 nM, 231 nM and 912 nM.
On the same counts, the results for `O=C1CCc2cc(OCCN3CCC4(CC3)C(=O)Nc3ccc(Cl)cc34)ccc2N1[C@H]1C[C@H](O)C1` [Compound 224, 5-chloro-1′-[2-({2-oxo-1-[(trans)-3-hydroxycyclobutyl]-1,2,3,4-tetrahydroquinolin-6-yl}oxy)ethyl]-1,2-dihydrospiro[indole-3,4′-piperidin]-2-one] are 38.6 nM, 32.7 nM and 92.8 nM.
In the same order, the values of `O=C1Nc2ccc(Cl)cc2C12CCN(CCOc1ccc(S(=O)(=O)C3(CO)CC3)cc1)CC2` [Compound 225, 5-chloro-1′-[2-(4-{[1-(hydroxymethyl)cyclopropyl]sulfonyl}phenoxy)ethyl]-1,2-dihydrospiro[indole-3,4′-piperidin]-2-one] are 32.6 nM, 12.9 nM and 50.8 nM.
Consider `CNC(=O)C1(S(=O)(=O)c2ccc(OCCN3CCC4(CC3)C(=O)Nc3ccc(Cl)cc34)cc2)CC1` [Compound 226, 1-[4-(2-{5-chloro-2-oxo-1,2-dihydrospiro[indole-3,4′-piperidin]-1′-yl}ethoxy)benzenesulfonyl]-N-methylcyclopropane-1-carboxamide], for which the EC50 in test [1] turned out to be 43 nM; in test [2], 36 nM; in test [3], 112 nM.
With `CN(C)C(=O)C1(S(=O)(=O)c2ccc(OCCN3CCC4(CC3)C(=O)Nc3ccc(Cl)cc34)cc2)CC1` [Compound 227, 1-[4-(2-{5-chloro-2-oxo-1,2-dihydrospiro[indole-3,4′-piperidin]-1′-yl}ethoxy)benzenesulfonyl]-N,N-dimethylcyclopropane-1-carboxamide], the figures for the EC50 in test [1], in test [2] and in test [3] were 47 nM, 61.6 nM and 248 nM, respectively.
On the same counts, the results for `O=C1Nc2ccc(Cl)cc2C12CCN(CCOc1ccc(S(=O)(=O)C3(C(=O)N4CCC4)CC3)cc1)CC2` [Compound 228, 1′-[2-(4-{[1-(azetidine-1-carbonyl)cyclopropyl]sulfonyl}phenoxy)ethyl]-5-chloro-1,2-dihydrospiro[indole-3,4′-piperidin]-2-one] are 101 nM, 86.2 nM and 363 nM.
On the same counts, the results for `CNC(=O)c1ccc(OCCN2CCC3(CC2)C(=O)Nc2ccc(Cl)cc23)cc1F` [Compound 229, 4-(2-{5-chloro-2-oxo-1,2-dihydrospiro[indole-3,4′-piperidin]-1′-yl}ethoxy)-2-fluoro-N-methylbenzamide] are 128 nM, 186 nM and 778 nM.
On the same counts, the results for `CN(C)C(=O)c1ccc(OCCN2CCC3(CC2)C(=O)Nc2ccc(Cl)cc23)cc1F` [Compound 230, 4-(2-{5-chloro-2-oxo-1,2-dihydrospiro[indole-3,4′-piperidin]-1′-yl}ethoxy)-2-fluoro-N,N-dimethylbenzamide] are 98.7 nM, 209 nM and 801 nM.
